Columns and labels:
[1] = target: T1, SPHK1 (Homo sapiens, UniProt Q9NYA1); experiment: Sphingosine kinase 1 activity assay (Adapta screening system); assay type: biochemical; settings: 20 μM compound; for inhibition at 20 µM: read-out: SK1 inhibition; for SK1 inhibitory effect (in words): compared with PF-543
T1 construct: purchased Thermo Fisher Scientific

[2] = Liver microsomal stability, human (HLM); assay type: in vitro ADME; settings: human liver microsomes, NADPH
Protocol: (§1) Microsomal incubations were conducted in triplicate in 0.1 M potassium phosphate buffer (pH 7.4) in a clean 1.5 mL eppendorf tube. […] HLM was added and the mixture was pre-incubated at 37 °C in a shaking incubator at approximately 350 rpm for 5 min under Thermo mixer (Eppendorf., Hamburg, Germany). Reactions were initiated by the addition of 1 mM NADPH and were then quenched by adding 40 µL of ice-cold acetonitrile containing 10 µM chlorproamide (CPP) as an internal standard at 0, 30 min. The incubation mixtures were then centrifuged at 15,000× g for 5 min at 4 °C. A 2 µL aliquot of the supernatant was directly injected into the LC-MS/MS system. The LC-MS/MS system consisted of the Nexera XR HPLC system (Shimadzu Co., Kyoto, Japan) coupled to the TSQ Vantage triple quadrupole mass spectrometer equipped with Xcalibur version 1.1.1 (Thermo Fisher Scientific Inc., Waltham, MA, USA).

[3] = Liver microsomal stability, dog (DLM); assay type: in vitro ADME; settings: dog liver microsomes, NADPH
Protocol: [Worded in the source for another species; this species is reported under the same test.] as §1

[4] = Liver microsomal stability, rat (RLM); assay type: in vitro ADME; settings: rat liver microsomes, NADPH
Protocol: [Worded in the source for another species; this species is reported under the same test.] as §1

[5] = Liver microsomal stability, mouse (MLM); assay type: in vitro ADME; settings: mouse liver microsomes, NADPH
Protocol: [Worded in the source for another species; this species is reported under the same test.] as §1

[6] = target: T2, SPHK2 (Homo sapiens, UniProt Q9NRA0); experiment: Sphingosine kinase 2 activity assay (Adapta screening system); assay type: biochemical; settings: 20 μM compound
T2 construct: purchased Thermo Fisher Scientific
T2 sequence (Q9NRA0 1-654): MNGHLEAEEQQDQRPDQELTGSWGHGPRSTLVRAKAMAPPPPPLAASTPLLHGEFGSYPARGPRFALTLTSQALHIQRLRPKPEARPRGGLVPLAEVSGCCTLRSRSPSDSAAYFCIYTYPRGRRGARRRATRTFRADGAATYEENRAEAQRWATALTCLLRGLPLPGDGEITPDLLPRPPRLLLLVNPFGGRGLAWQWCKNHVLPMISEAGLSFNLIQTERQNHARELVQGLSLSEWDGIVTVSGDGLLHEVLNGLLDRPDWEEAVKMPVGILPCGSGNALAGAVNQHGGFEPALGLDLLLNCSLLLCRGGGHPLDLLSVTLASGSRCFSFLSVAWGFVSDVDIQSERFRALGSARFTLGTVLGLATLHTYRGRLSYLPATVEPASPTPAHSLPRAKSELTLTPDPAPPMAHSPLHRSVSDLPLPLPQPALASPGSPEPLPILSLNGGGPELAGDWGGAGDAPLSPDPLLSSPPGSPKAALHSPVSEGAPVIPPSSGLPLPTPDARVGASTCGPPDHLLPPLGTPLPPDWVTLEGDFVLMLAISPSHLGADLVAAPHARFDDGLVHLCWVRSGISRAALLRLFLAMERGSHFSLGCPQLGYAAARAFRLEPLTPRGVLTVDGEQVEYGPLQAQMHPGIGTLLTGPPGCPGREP
Protocol: […]. The sphingosine kinase 1 activity assay used 0.04–0.16 ng SPHK1, 50 μM sphingosine lipid substrate in 32.5 mM HEPES pH 7.5, 0.005% BRIJ 35, 5 mM MgCl2, 0.5 mM ethylene glycol-bis(β-aminoethyl ether)-N,N,N′,N′-tetraacetic acid (EGTA). The sphingosine kinase 2 activity assay detected 35 - 140 ng SPHK2, 50 μM sphingosine lipid substrate in 32.5 mM HEPES pH 7.5, 0.5 mM EGTA, 1.5 mM MgCl2.

[7] = target: SK2; parameters: method as in PMID 21940750; settings: cited from earlier work

T1 sequence (Q9NYA1 whole entry): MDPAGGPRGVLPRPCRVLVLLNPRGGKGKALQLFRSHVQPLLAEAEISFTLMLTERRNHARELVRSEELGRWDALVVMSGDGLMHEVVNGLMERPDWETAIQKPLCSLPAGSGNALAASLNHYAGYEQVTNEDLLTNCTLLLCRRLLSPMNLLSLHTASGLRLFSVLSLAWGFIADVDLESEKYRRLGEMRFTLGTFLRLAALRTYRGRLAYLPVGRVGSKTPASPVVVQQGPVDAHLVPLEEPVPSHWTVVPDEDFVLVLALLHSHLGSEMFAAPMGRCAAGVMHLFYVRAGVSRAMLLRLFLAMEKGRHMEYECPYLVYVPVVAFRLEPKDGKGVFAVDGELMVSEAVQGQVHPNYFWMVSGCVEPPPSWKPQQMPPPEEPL

| Compound | inhibition at 20 µM [1] | SK1 inhibitory effect (in words) [1] | other results |
| --- | --- | --- | --- |
| O=S(=O)(Cc1cc(F)cc(OCc2ccc(CN3CC[C@H](O)C3)cc2)c1)c1ccccc1 [compound 6, (S)-1-(4-((3-fluoro-5-((phenylsulfonyl)methyl)phenoxy)methyl)benzyl)pyrrolidin-3-ol] | 100% | – | – |
| O=S(=O)(Cc1cc(O)cc(OCc2ccc(CN3CCC(O)CC3)cc2)c1)c1ccccc1 [compound 10, 1-(4-((3-Hydroxy-5-((phenylsulfonyl)methyl)phenoxy)methyl)benzyl)piperidin-4-ol] | – | reduced | – |
| O=S(=O)(Cc1cc(F)cc(OCc2ccc(CN3CCC[C@@H]3CO)cc2)c1)c1ccccc1 [compound 5, (R)-(1-(4-((3-Fluoro-5-((phenylsulfonyl)methyl)phenoxy)methyl)benzyl)pyrrolidin-2-yl)methanol] | 100% | – | HLM microsomal stability (% remaining during 30 min) [2]: 7.6 % remaining; DLM microsomal stability (% remaining during 30 min) [3]: 5.5 % remaining; RLM microsomal stability (% remaining during 30 min) [4]: 6.8 % remaining; MLM microsomal stability (% remaining during 30 min) [5]: 9.8 % remaining |
| O=S(=O)(Cc1cc(O)cc(OCc2ccc(CN3CCC[C@@H]3CO)cc2)c1)c1ccccc1 [compound 8, (R)-3-((4-((2-(Hydroxymethyl)pyrrolidin-1-yl)methyl)benzyl)oxy)-5-((phenylsulfonyl)methyl)phenol] | – | – | SK2 inhibitory effect (in words) [6]: showed an inhibitory effect against SK2 alone |
| O=S(=O)(Cc1cccc(OCc2ccc(CN3CCC[C@@H]3CO)cc2)c1)c1ccccc1 [compound 2, (R)-(1-(4-((3-((Phenylsulfonyl)methyl)phenoxy)methyl)benzyl)pyrrolidin-2-yl)methanol] | 100% | – | – |
| O=S(=O)(Cc1cccc(OCc2ccc(CN3CCC(O)CC3)cc2)c1)c1ccccc1 [compound 4, 1-(4-((3-((Phenylsulfonyl)methyl)phenoxy)methyl)benzyl)piperidin-4-ol] | – | reduced | – |
| O=S(=O)(Cc1cccc(OCc2ccc(CN3CC[C@H](O)C3)cc2)c1)c1ccccc1 [compound 3, (S)-1-(4-((3-((Phenylsulfonyl)methyl)phenoxy)methyl)benzyl)pyrrolidin-3-ol] | 100% | – | – |
| CCCCCCCCc1ccc(CC[C@@](N)(CO)COC)cc1 [ROME, (R)-FTY720-OMe] | – | – | Ki [7]: 16 µM |
| O=S(=O)(Cc1cc(F)cc(OCc2ccc(CN3CCC(O)CC3)cc2)c1)c1ccccc1 [compound 7, 1-(4-((3-Fluoro-5-((phenylsulfonyl)methyl)phenoxy)methyl)benzyl)piperidin-4-ol] | – | reduced | – |

— article PMC7321251 (Molecules, 2020)
